Test results: PMC6191125, “Peptidoglycan potentiates the membrane disrupting effect of the carboxyamidated form of DMS-DA6, a Gram-positive selective antimicrobial peptide isolated from Pachymedusa dacnicolor skin” (PLoS ONE, 2018)
Converted amounts (≈) assume the structure as drawn. Residues, ends and D or L forms follow the SMILES beside them.

Assays:
E. coli ATCC 35218 = format: cell-based, Escherichia coli; settings: LB, 10^7 cfu/mL, 18 h at 37°C, peptide 0.2-100 μM, averaged over >=3 independent experiments in triplicate
Excerpt: (§1) Gram-negative bacterial strains, Escherichia coli ATCC 8739, Escherichia coli ATCC 35218, Escherichia coli ML 35p, Escherichia coli K12, Pseudomonas aeruginosa ATCC 27853, and Gram-positive bacterial strains, Enterococcus faecalis ATCC29212, Kocuria rhizophila ATCC 9341, Staphylococcus aureus ATCC 6538, Staphylococcus aureus ATCC 29213, Staphylococcus aureus ST 1065, Staphylococcus epidermidis BM 3302, and Bacillus subtilis subsp. subtilis CIP 52.65, as well as two multiresistant strains (Staphylococcus aureus DAR 5829 (http://www.ncbi.nlm.nih.gov/bioproject/228435) and Enterococcus faecium BM 4147 [20] were cultured as described previously. The minimal inhibitory concentration (MIC) of the peptides was determined by the microtiter broth dilution method. Overnight precultures were subcultured in Luria Bertani (LB) medium at 37°C with vigorous shaking until mid-log phase (~2h) and diluted to 10^7 cfu/mL. Peptide solutions were prepared at different concentrations (from 2 to 500 μM) by successive 2-fold dilutions in water from 1 mM stock solutions. In each row of a 96-well nonbinding surface plate, 90 μL of bacteria were incubated with 10 μL of peptide solutions for 18 h at 37°C. The final peptide concentrations ranged from 0.2 to 100 μM. Cell growth was evaluated by visual inspection and absorbance at 600 nm to determine the lowest concentration of peptide that prevented cell growth. Wells were either opaque, indicating stationary phase growth, or transparent indicating no growth. The lowest concentration showing no visible growth was considered as the MIC. After measurement of the MIC, the bactericidal activity was determined by the addition of resazurin dye (30 μL, 0.01% w/v) to each well [22]. The plates were further incubated at 37°C for 18 h. Wells in which the dye turned pink indicated live bacteria, whereas wells in which the dye remained blue indicated dead bacteria. The minimal bactericidal concentration (MBC) is the lowest concentration with blue coloration (99.9% of bacteria were killed). Three to five independent assays were performed in triplicate. Positive controls correspond to medium plus 0.2% formaldehyde and negative controls to medium without peptide.

E. coli ATCC 8739 = format: cell-based, Escherichia coli
Excerpt: as §1

E. coli K12 = format: cell-based, Escherichia coli; settings: LB, 10^7 cfu/mL, 18 h at 37°C, peptide 0.2-100 μM, averaged over >=3 independent experiments in triplicate
Excerpt: as §1

E. coli ML 35p = format: cell-based, Escherichia coli; settings: LB, 10^7 cfu/mL, 18 h at 37°C, peptide 0.2-100 μM, averaged over >=3 independent experiments in triplicate
Excerpt: as §1

[1] = tested on: Ps. aeruginosa ATCC 27853; format: cell-based, Pseudomonas aeruginosa; settings: LB, 10^7 cfu/mL, 18 h at 37°C, peptide 0.2-100 μM, averaged over >=3 independent experiments in triplicate
Excerpt: as §1, with “Wells were either opaque, indicating stationary phase growth, or transparent indicating no growth. The lowest concentration showing no visible growth was considered as the MIC. After measurement of the MIC, the bactericidal activity was determined by the addition of resazurin dye (30 μL, 0.01% w/v) to each well [22]. The plates were further incubated at 37°C for 18 h. Wells in which the dye turned pink indicated live bacteria, whereas wells in which the dye remained blue indicated dead bacteria. The minimal bactericidal concentration (MBC) is the lowest concentration with blue coloration (99.9% of bacteria were killed). Three to five independent assays were performed in triplicate. Positive controls correspond to medium plus 0.2% formaldehyde and negative controls to medium without peptide.” left out

S. epidermidis BM3302 = format: cell-based, Staphylococcus epidermidis
Excerpt: as §1

K. rhizophila ATCC 9341 = format: cell-based, Kocuria rhizophila
Excerpt: as §1

B. subtilis CIP 52.65 = format: cell-based, Bacillus subtilis subsp. subtilis
Excerpt: as §1

S. aureus ATCC 29213 = format: cell-based, Staphylococcus aureus
Excerpt: as §1

S. aureus ATCC 6538 = format: cell-based, Staphylococcus aureus
Excerpt: as §1

S. aureus DAR 5829 = format: cell-based, Staphylococcus aureus; settings: S. aureus DAR 5829, multi-resistant strain
Excerpt: as §1

S. aureus ST 1065 = format: cell-based, Staphylococcus aureus
Excerpt: as §1

E. faecalis ATCC 29212 = format: cell-based, Enterococcus faecalis
Excerpt: as §1

E. faecium BM 4147 = format: cell-based, Enterococcus faecium; settings: E. faecium BM 4147, multi-resistant strain
Excerpt: as §1

A549 cells = test: Cytotoxicity, trypan blue exclusion; format: cell-based; settings: A549 human lung carcinoma cells, 2-hour incubation at 37°C, 5% CO2, concentrations as high as 100 μM; 3 independent experiments in triplicate
Description: A549 cells (ATCC CCL-185), a human lung carcinoma cell line, were cultivated at 37°C, humid atmosphere and 5% CO2, in Petri dishes with DMEM Advanced medium (Gibco) supplemented with 5% of fetal bovine serum (FBS), 2 mM of glutamine, 100 U of penicillin and 50 μg/mL of streptomycin (Gibco). When the cells reached 80% confluence, the medium was discarded and the cells were washed with PBS 1×, before being treated with Trypsin 1× for 2 minutes to detach them form the culture dish. Cells were then resuspended in DMEM medium, seeded in a 48-well culture plate (500 000 cells/well), and either form of DMS-DA6 solubilized in PBS 1× was added and incubated for 2 hours at 37°C, 5% CO2. DMSO 30% was used as a positive control to induce cell death, and DMEM medium as negative control. After incubation, cell viability was assessed by trypan blue exclusion.

[2] = LB, 10^7 cfu/mL, 18 h at 37°C, averaged over >=3 independent experiments in triplicate
[3] = resazurin dye added after MIC, further 18 h at 37°C, 99.9% killed, averaged over >=3 experiments in triplicate

With CC[C@H](C)[C@H](NC(=O)CNC(=O)[C@H](Cc1c[nH]c2ccccc12)NC(=O)[C@@H](NC(=O)CN)C(C)C)C(=O)N[C@@H](C)C(=O)N[C@@H](CCCCN)C(=O)N[C@H](C(=O)N[C@@H](C)C(=O)NCC(=O)N[C@@H](CCCCN)C(=O)N[C@H](C(=O)N[C@@H](CC(C)C)C(=O)NCC(=O)N[C@@H](CC(N)=O)C(=O)N[C@H](C(=O)N[C@@H](CC(C)C)C(=O)N1CCC[C@H]1C(=O)N[C@@H](Cc1c[nH]cn1)C(=O)N[C@H](C(=O)N[C@@H](Cc1ccccc1)C(=O)N[C@@H](CO)C(=O)N[C@@H](CO)C(=O)N[C@@H](CC(N)=O)C(=O)N[C@@H](CCC(N)=O)C(=O)N[C@@H](CO)C(=O)O)C(C)C)[C@@H](C)CC)C(C)C)[C@@H](C)CC [DMS-DA6-OH] (H-GVWGIAKIAGKVLGNILPHVFSSNQS-OH) the MIC (E. coli ATCC 35218) was greater than 100 µM, the MIC (E. coli ATCC 8739; [2]) was 50 µM (≈ 135 µg/mL) and the MBC (E. coli ATCC 8739; [3]) was 100 µM (≈ 269 µg/mL). For the same compound, the MIC (E. coli K12) was greater than 100 µM, the MIC (E. coli ML 35p) was greater than 100 µM and the MIC [1] was greater than 100 µM. It also gave an MIC (S. epidermidis BM3302; [2]) of 25 µM (≈ 67.3 µg/mL), an MBC (S. epidermidis BM3302; [3]) of 25 µM (≈ 67.3 µg/mL) and an MIC (K. rhizophila ATCC 9341; [2]) of 6.25 µM (≈ 16.8 µg/mL). The MBC (K. rhizophila ATCC 9341; [3]) was 12.5 µM (≈ 33.7 µg/mL), the MIC (B. subtilis CIP 52.65; [2]) was 12.5 µM (≈ 33.7 µg/mL) and the MBC (B. subtilis CIP 52.65; [3]) was 12.5 µM (≈ 33.7 µg/mL). The MIC (S. aureus ATCC 29213; [2]) was 6.25 µM (≈ 16.8 µg/mL), the MBC (S. aureus ATCC 29213; [3]) was 25 µM (≈ 67.3 µg/mL) and the MIC (S. aureus ATCC 6538; [2]) was 12.5 µM (≈ 33.7 µg/mL). The MBC (S. aureus ATCC 6538; [3]) was 12.5 µM (≈ 33.7 µg/mL), the MIC (S. aureus DAR 5829; [2]) was 50 µM (≈ 135 µg/mL) and the MBC (S. aureus DAR 5829; [3]) was 50 µM (≈ 135 µg/mL). The MIC (S. aureus ST 1065; [2]) was 25 µM (≈ 67.3 µg/mL), the MBC (S. aureus ST 1065; [3]) was 25 µM (≈ 67.3 µg/mL) and the MIC (E. faecalis ATCC 29212; [2]) was 100 µM (≈ 269 µg/mL). It also gave an MBC (E. faecalis ATCC 29212; [3]) of 100 µM (≈ 269 µg/mL), an MIC (E. faecium BM 4147; [2]) of 50 µM (≈ 135 µg/mL) and an MBC (E. faecium BM 4147; [3]) of 100 µM (≈ 269 µg/mL). For the same compound, the “death of A549 cells (trypan blue exclusion)” value (A549 cells) was “neither DMS-DA6-OH (net charge +2) nor DMS-DA6-NH2 (net charge +3) resulted in the death” and the intact peptide remaining was greater than 90%.
